Where two headings read alike, the source gives them in different places.
Legend:
[1] = molecular target: Silver catfish (Synodontis eupterus) major hepatic glutathione transferase (seGST); assay type: biochemical; conditions: pH 6.5, 1 mM CDNB and 1 mM GSH
[2] = molecular target: Silver catfish (Synodontis eupterus) major hepatic glutathione transferase (seGST); experiment: Product and dead-end inhibition studies of seGST; assay type: biochemical
[3] = tested on: Silver catfish (Synodontis eupterus) major hepatic glutathione transferase (seGST); experiment: seGST steady state kinetics, GSH-CDNB conjugation; assay type: biochemical; conditions: for Km: 0.1-1.2 mM GSH and CDNB, one substrate varied, the other kept constant
GST = conditions: cited from earlier work
[4] = tested on: Silver catfish (Synodontis eupterus) major hepatic glutathione transferase (seGST); experiment: Viscosity dependence of seGST kcat/KM; assay type: biochemical; conditions: viscosogen added, 25 °C

Q: What does the source list for “1-methyl glutathione [1−methylglutathione]”?
A: IC50 [1]: 16.6 ± 1.58 µM; Ki ([2]; read-out: Kis (CDNB varied), CDNB varied): 0.16 µM; Ki ([2]; read-out: Kis (GSH varied), CDNB fixed at 1.0 mM, GSH 0.1-1.0 mM): 0.09 µM

Q: With `O=C1OC(c2ccc(O)c(S(=O)(=O)O)c2)(c2ccc(O)c(S(=O)(=O)O)c2)c2c(Br)c(Br)c(Br)c(Br)c21` [Bromosulphosptlein, bromosulfophthalein] as the compound, how does the IC50 [1] read?
A: The IC50 was 47.4 ± 5.67 µM.

Q: With `O=[N+]([O-])c1ccc(Cl)c([N+](=O)[O-])c1` [CDNB, 1-chloro 2,4-dintrobenzene] as the compound, how does the Km ([3]; 25 °C) read?
A: The Km was 690 ± 170 µM.

Q: What about the “KIB (E.CDNB + GSH ⇌ E.CDNB.GSH)” value ([3]; from secondary plots, GSH-CDNB) of the same compound?
A: The value was 0.48 ± 0.02.

Q: For `Nc1c(S(=O)(=O)O)cc(Nc2ccc(Nc3nc(Cl)nc(Nc4ccccc4S(=O)(=O)O)n3)c(S(=O)(=O)O)c2)c2c1C(=O)c1ccccc1C2=O` [Cibracron Blue], which IC50 [1] is on record?
A: Its IC50 is 0.01 ± 0.001 µM.

Q: For `C=C(CC)C(=O)c1ccc(OCC(=O)O)c(Cl)c1Cl` [Ethacrynic acid], which IC50 [1] is on record?
A: The IC50 was 21.3 ± 3.22 µM.

Q: For `N[C@@H](CCC(=O)N[C@@H](CS)C(=O)NCC(=O)O)C(=O)O` [GSH, Reduced glutathione], which “pKa of GSH” value (GST; before lowering by GST) is on record?
A: The value was 9.0.

Q: And the “pKa of the bound GSH” value (GST; bound to GST)?
A: The value was “about 6.5”.

Q: What about the Km ([3]; 25 °C) of the same compound?
A: The Km was 530 ± 50 µM.

Q: What about the “kcat[GSH]” value ([3]; 25 °C, GSH-CDNB conjugation) of the same compound?
A: Its value is 44.62 ± 1.124 s⁻¹.

Q: And the “KA (E.GSH + CDNB ⇌ E.GSH.CDNB)” value ([3]; from secondary plots, GSH-CDNB)?
A: Its value is 0.64 ± 0.04.

Q: And the “KIA (E.GSH)” value ([3]; from secondary plots, GSH-CDNB)?
A: Its value is 0.14 ± 0.01.

Q: For `C=CC1=C(C)c2cc3[n-]c(cc4[n-]c(cc5nc(cc1n2)C(C)=C5C=C)c(C)c4CCC(=O)O)c(CCC(=O)O)c3C.[Fe+2]` [Hematin], which IC50 [1] is on record?
A: Its IC50 is 5 ± 0.1 µM.

Q: With `[Cl-].[K+]` [KCl] as the compound, how does the “inhibition pattern in double reciprocal plots” value ([2]; with respect to GSH and with respect to CDNB) read?
A: Its value is “non-competitive inhibition”.

Q: For `[Cl][Sn]([c]1ccccc1)([c]1ccccc1)[c]1ccccc1` [Triphenytin chloride, triphenyltin chloride], which IC50 [1] is on record?
A: Its IC50 is 0.05 ± 0.005 µM.

Q: Which “catalytic efficiency indicated by the exponential value” [4] does the source give for `OCC(O)CO` [glycerol, Glycerol] here?
A: The value was 23%.

Q: And the “exponential value of (kcat/KM)^0/(kcat/KM) versus relative viscosity” value ([4]; 0.1 M potassium phosphate buffer pH 6.5)?
A: Its value is 0.227.

Q: With `CCCCCCSC[C@H](NC(=O)CC[C@H](N)C(=O)O)C(=O)NCC(=O)O` [s-hexylglutathione] as the compound, how does the IC50 [1] read?
A: The IC50 was 17.6 ± 1.3 µM.
